# pIC50: −log10 of the molar value. Like-named read-outs stand apart in the source and are kept apart here.
# Tests used:
# [1] = tested on: NCM460 cells; conditions: 1 mM, 1 h
# Description: Before images were captured, an aliquot of the HEPES binding buffer was mounted on a slide and observed for any background fluorescence.
# [2] = tested on: normal cheek pouch tissue; conditions: 2 mM solution topical, 10 minutes, readings Adjusted Volume CNT*mm2
# [3] = tested on: LNCaP cell line; assay: Chelate permeability: fluorescence of cytoplasm and membrane fractions; format: cell-based, human
# [4] = tested on: excised human colorectal tissue; conditions: 2 mM/5% ethanol aerosol spray, rinsing, UV 320 nm
# Procedure: Excised tissue was received from human patients undergoing radical resection of the colon as a result of invasive cancer. Sections of tissue were received within 30 minutes of resection and the chelate solution applied as an aerosol spray followed by sequential aqueous rinsing to remove unbound chelate. The resulting tissue was then visualized under UV irradiation (320 nm) to detect the presence of the chelate (red-shifted emission).
# [5] = tested on: human cancer cell lines
# Procedure: To assess whether or not chelate treatment of cancer cells could produce a net modulation in cell growth, the overall growth inhibitory effect of chelates on various cancer cell lines was tested. The concentration of chelate necessary to produce 50% growth inhibition was measured, as determined by detection of the formazan product of cellular degradation of 3-(4,5-dimethylthiazol-2-yl)-5-(3-carboxymethoxyphenyl)-2-(4-sulfophenyl)-2H-tetrazolium, inner salt (MTS).
# [6] = tested on: SK-MES cells; conditions: for EuQCTME Cell Binding (fluorescence per well): 1 mM
# [7] = tested on: Caco-2 cells; conditions: 1 mM
# [8] = tested on: NCM-460 cells; conditions: for EuQCTME Cell Binding (fluorescence per well): 1 mM
# [9] = tested on: Caco-2 cells; conditions: 1 mM EuQCTME, up to 240 min
# Procedure: (§1) Cells were counted and plated in a 20×100 mm cell culture dish at a density of about 2×10^6 cells.
# (§2) After incubation cells were collected by trypsinization and gently centrifuged (about […]) for 10 minutes. The cell supematant was discarded, and the resulting cell pellet was washed in cold PBS (phosphate buffered saline). The cell pellet was centrifuged again (about 2000 rpm) for 10 minutes. The PBS supernatant was discarded and the cold PBS wash was repeated and centrifuged as above. After discarding the PBS supernatant, the resulting cell pellet was used for NE-PER extraction (Pierce, Rockford, Ill.) according to the manufacturer's instructions.
# (§3) The resulting nuclear and cytoplasmic fractions from each time point were then placed into the wells of a 96-well white plate. Due to the volume of lysate available for measurement, the fractions were diluted 1:4 in HEPES binding buffer for a total volume of 100 liL. […] The following settings were optimized for measurement: excitation at 320 nm (band width: 35 nm), emission at 595 nm (bandwidth: 35 nm), gain 110, lag time 1 μs, integration time 2000 μs, # of flashes: 1.
# (§4) Because lysate volume was in limited quantity and protein concentration was relatively low, absorbances for protein measurements were read using the formula of Kalckar (1.45 OD280-0.74OD260=mg protein/mL). Each time point measurement above (in RFU) was normalized to its corresponding protein content and recalculated as RFU/μg protein.
# [10] = tested on: HLAC cells; conditions: 1 mM EuQCTME, up to 240 min
# Procedure: as §1, §2, §3, §4
# [11] = tested on: DU-145 cells; conditions: 1 mM EuQCTME, up to 240 min
# Procedure: as §1, §2, §3, §4
# [12] = tested on: SK-MES cells; conditions: 1 mM EuQCTME, up to 240 min
# Procedure: as §1, §2, §3, §4
# [13] = tested on: C33-A cells; conditions: 1 mM EuQCTME, up to 240 min
# Procedure: as §1, §2, §3, §4
# [14] = tested on: NCM460 cells; conditions: 1 mM EuQCTME, up to 240 min
# Procedure: as §1, §2, §3, §4
# [15] = target: HSPC194 protein (Homo sapiens, UniProt Q9P0S9); assay: Elution of HSPC194 from affinity support column by compounds; conditions: symbols not defined
# Description: Purified HSPC194 protein was captured on an affinity support column. The unbound contaminants, which have no affinity for the ligand, are washed through the column, leaving the HSPC194 protein bound to the matrix.
# [16] = tested on: cancer cell lines (CaCo-2, Du-145, SK-MES, HLaC, C33-A); conditions: relative to control cells
# [17] = tested on: etoposide-induced (apoptotic) HEK293 cells; assay: Permeability of chelates to apoptotic cells, fluorescence of fractions; format: cell-based, human
# Procedure: The human kidney transformed HEK293 cells (obtained from the ATCC) were grown in Eagle's Minimum Essential Medium (EMEM) supplemented with 10% (v/v) heat-inactivated fetal bovine serum, sodium pyruvate, nonessential amino acids and antibiotics in a humidified 5% CO2 atmosphere at 37° C. Medium and supplements were purchased from Gibco bRL (Grand Island, N.Y.). Etoposide was obtained from Sigma (St. Louis, Mo.) and prepared as 20 mM solution in dimethyl sulfoxide (DMSO). For treatments, etoposide was applied to the HEK293 cultures at 1:1000 dilution (final concentration of 20 μM) after cell became 75% confluent. As a control, cells were fed with medium containing 0.1% DMSO in the absence of etoposide. After treatment with etoposide, cells were incubated in a humidified 5% CO2 at 37° C. for 24 hours. HEK293 cells were collected by removing treatment medium and washed 2 times with 10 mM HEPES buffer. Final cell pellets were resuspended in a small amount of HEPES and stored at 4° C. for further study.
# Cells were grown to confluence in T-150 flasks (about 2×10^6 cells). […] After treatment, the chelate or analogue supernatant was discarded and the cells were rinsed three times at room temperature with 10 mM HEPES. Cells were then removed from the flask by manual scraping. Cells were transferred to a 50-mL conical tube and centrifuged (400×g) for 5 minutes and the test material removed. Remaining cells were rinsed twice with cold 10 mM HEPES. Cells were used in cell binding assays.
# Sequence of HSPC194 protein (Q9P0S9 whole entry): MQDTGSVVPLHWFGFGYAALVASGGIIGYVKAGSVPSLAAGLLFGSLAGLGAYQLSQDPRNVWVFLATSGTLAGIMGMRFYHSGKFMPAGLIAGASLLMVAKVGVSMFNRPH
structure (smiles),measurement,setting,value
"CCOP(=O)([O-])CN1CCN(Cc2ccc3cc(C)ccc3n2)CCN(CP(=O)([O-])OCC)CCN(CP(=O)([O-])OCC)CC1.[Eu+3] [Eu-QCTME, Eu(III) N-(6-methyl-2-quinolylmethyl)-N′,N″,N′″-tris(methylenephosphonic acid ethyl ester)-1,4,7,10-tetraazacyclododecane]",uptake by confocal microscopy,[1],only a minimal uptake
same,Fluorescence/mg Cytoplasm,[2]; Normal 1,1344
same,Fluorescence/mg Membrane,[2]; Normal 1,1348
same,Fluorescence/mg Cytoplasm,[2]; Normal 2,1369
same,Fluorescence/mg Membrane,[2]; Normal 2,1374
same,"fluorescence in the cytoplasm, dose response","[3]; 0-2000 μM, 2 hours, compared to PZ-HPV-7",significant increases in fluorescence
same,Fluorescence/mg Cytoplasm,"[3]; 1 mM chelate, 2 h, Table 4",3881
same,Fluorescence/mg Membrane,"[3]; 1 mM chelate, 2 h, Table 4",2561
same,localization in adjacent normal tissue,[4],no detectable localization
same,localization in diseased tissue (adenocarcinoma and pre-malignant neoplasm),[4],found to localize in diseased tissue
same,cancer cell lines significantly inhibited compared to control,[5],8 of 10 cancer cell lines were significantly inhibited
same,pIC50,"[5]; read-out: Half-maximum growth inhibition concentration, range over examined cancer cell lines, 96 hour continuous exposure",3.85 to 4.80
same,time course cytotoxicity,"[5]; up to 48 hours, most malignant cell lines",lack of measurable cytotoxicity
same,EuQCTME Cell Binding (fluorescence per well),[6]; 2 min,"21,983"
same,EuQCTME Cell Binding (fluorescence per well),[6]; 5 min,"11,756"
same,EuQCTME Cell Binding (fluorescence per well),[6]; 15 min,"8,588"
same,EuQCTME Cell Binding (fluorescence per well),[6]; 30 min,"7,237"
same,EuQCTME Cell Binding (fluorescence per well),[6]; 45 min,"9,513"
same,EuQCTME Cell Binding (fluorescence per well),[6]; 60 min,"5,358"
same,EuQCTME Cell Binding (fluorescence per well),[6]; 120 min,"8,159"
same,EuQCTME Cell Binding (fluorescence per well),[6]; 180 min,"5,682"
same,EuQCTME Cell Binding (fluorescence per well),[6]; 240 min,"15,625"
same,Totals: Normalized total area under each curve (AUC),[6]; over 240 min,28
same,EuQCTME Cell Binding (fluorescence per well),[7]; 2 min,"4,708"
same,EuQCTME Cell Binding (fluorescence per well),[7]; 5 min,"3,391"
same,EuQCTME Cell Binding (fluorescence per well),[7]; 15 min,"6,806"
same,EuQCTME Cell Binding (fluorescence per well),[7]; 30 min,"11,168"
same,EuQCTME Cell Binding (fluorescence per well),[7]; 45 min,"10,872"
same,EuQCTME Cell Binding (fluorescence per well),[7]; 60 min,"21,176"
same,EuQCTME Cell Binding (fluorescence per well),[7]; 120 min,"29,389"
same,EuQCTME Cell Binding (fluorescence per well),[7]; 180 min,"31,510"
same,EuQCTME Cell Binding (fluorescence per well),[7]; 240 min,"4,575"
same,EuQCTME Cell Binding (fluorescence per well),[8]; 2 min,"2,757"
same,EuQCTME Cell Binding (fluorescence per well),[8]; 5 min,"3,325"
same,EuQCTME Cell Binding (fluorescence per well),[8]; 15 min,"14,042"
same,EuQCTME Cell Binding (fluorescence per well),[8]; 30 min,"18,535"
same,EuQCTME Cell Binding (fluorescence per well),[8]; 45 min,"18,737"
same,EuQCTME Cell Binding (fluorescence per well),[8]; 60 min,"20,666"
same,EuQCTME Cell Binding (fluorescence per well),[8]; 120 min,"2,388"
same,EuQCTME Cell Binding (fluorescence per well),[8]; 180 min,"1,598"
same,EuQCTME Cell Binding (fluorescence per well),[8]; 240 min,"16,682"
same,Totals: Normalized total area under each curve (AUC),[8]; over 240 min,44
same,nuclear and cytoplasmic fluorescence,[9],approximately 40 pg EuQCTME per μg protein
same,nuclear signal,[10],rapidly declined after an apparent initial burst
same,nuclear and cytoplasmic fluorescence,[11],approximately 40 pg EuQCTME per μg protein
same,nuclear and cytoplasmic fluorescence,[12],approximately 40 pg EuQCTME per μg protein
same,nuclear signal,[13],very low
same,cytoplasm-associated fluorescence,[14],< 10 pg EuQCTME per μg protein
same,nuclear signal,[14],high nuclear signal
same,Elution of HSPC194 10 μM,[15]; compound at 10 μM,0
same,Elution of HSPC194 50 μM,[15]; compound at 50 μM,0
same,time of initial burst of cell-bound fluorescence,[16],≤ 5 min
same,permeability to apoptotic induced HEK293 cells,[17],permeable
same,Fluorescence/mg Membrane,"[17]; HEK293 Apoptotic (etoposide 20 μM, 24 hours), 1 mM chelate, 2 hours",1697
